PubChem BioAssay AID248 (DTP/NCI, 2004)
“And” between values parts separate entries of the source, which are not always exact repeats. Equal values may be shown once. Toxic doses and inconclusive results are not listed. Cut-off read from the data, not from the text of the source: active = T/C of 150% or more; inactive = T/C below 125%.

Test system: L1210 leukemia ip in BDF1 mice, survival T/C
Experiment: NCI In Vivo Anticancer Drug Screen. Data for tumor model L1210 Leukemia (intraperitoneal) in B6D2F1 (BDF1) mice
Conditions: endpoint: mean survival time, higher = longer survival
How it was run: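 Transplantable tumor model; survival measured in treated vs vehicle control mice. Value = treated/control.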

[1] = dose: 100.0 mg/kg/injection, schedule: Q04DX002 (ip), vehicle: Klucel (hydroxypropylcellulose) (HPC)
[2] = dose: 200.0 mg/kg/injection, schedule: Q04DX002 (ip), vehicle: Klucel (hydroxypropylcellulose) (HPC)
[3] = dose: 100.0 mg/kg/injection, schedule: Q01DX001 (ip), vehicle: carboxymethylcellulose (CMC)
[4] = dose: 200.0 mg/kg/injection, schedule: Q01DX001 (ip), vehicle: carboxymethylcellulose (CMC)
[5] = dose: 400.0 mg/kg/injection, schedule: Q01DX001 (ip), vehicle: carboxymethylcellulose (CMC)
[6] = dose: 100.0 mg/kg/injection, schedule: Q01DX009 (ip), vehicle: saline with Tween-80
[7] = dose: 50.0 mg/kg/injection, schedule: Q01DX009 (ip), vehicle: saline
[8] = dose: 100.0 mg/kg/injection, schedule: Q04DX002 (ip), vehicle: saline with Tween-80
[9] = dose: 200.0 mg/kg/injection, schedule: Q04DX002 (ip), vehicle: saline with Tween-80
[10] = dose: 400.0 mg/kg/injection, schedule: Q04DX002 (ip), vehicle: saline with Tween-80
[11] = dose: 100.0 mg/kg/injection, schedule: Q04DX003 (ip), vehicle: Klucel (hydroxypropylcellulose) (HPC)
[12] = dose: 200.0 mg/kg/injection, schedule: Q04DX003 (ip), vehicle: Klucel (hydroxypropylcellulose) (HPC)
[13] = dose: 100.0 mg/kg/injection, schedule: Q04DX003 (ip), vehicle: saline with Tween-80
[14] = dose: 200.0 mg/kg/injection, schedule: Q04DX003 (ip), vehicle: saline with Tween-80
[15] = dose: 400.0 mg/kg/injection, schedule: Q04DX003 (ip), vehicle: saline with Tween-80
[16] = dose: 50.0 mg/kg/injection, schedule: Q04DX003 (ip), vehicle: Klucel (hydroxypropylcellulose) (HPC)
[17] = dose: 100.0 mg/kg/injection, schedule: Q01DX009 (ip), vehicle: Klucel (hydroxypropylcellulose) (HPC)
[18] = dose: 200.0 mg/kg/injection, schedule: Q01DX009 (ip), vehicle: Klucel (hydroxypropylcellulose) (HPC)
[19] = dose: 400.0 mg/kg/injection, schedule: Q01DX009 (ip), vehicle: Klucel (hydroxypropylcellulose) (HPC)
[20] = dose: 200.0 mg/kg/injection, schedule: Q01DX009 (ip), vehicle: saline with Tween-80
[21] = dose: 400.0 mg/kg/injection, schedule: Q01DX009 (ip), vehicle: saline with Tween-80
[22] = dose: 400.0 mg/kg/injection, schedule: Q04DX002 (ip), vehicle: Klucel (hydroxypropylcellulose) (HPC)

Measured: T/C

Nc1ccc(-c2ccc(N)c(Br)c2)cc1Br
inactive: [1] 99 % of control | [2] 93 % of control

O=C1c2cc(Br)ccc2-c2cc(Br)c(NC(=O)C(F)(F)F)c(Br)c21
inactive: [3] 92 % of control | [4] 108 % of control | [5] 99 % of control

Fc1ccc(Nc2c3ccccc3nc3ccccc23)cc1
inactive: dose: 25.0 mg/kg/injection, schedule: Q01DX009 (ip), vehicle: saline with Tween-80 92 % of control | dose: 50.0 mg/kg/injection, schedule: Q01DX009 (ip), vehicle: saline with Tween-80 118 % of control | [6] 116 % of control

O=C(O)c1cc(=O)[nH]c(=O)[nH]1
inactive: [1] 100 % of control

O=C1C=C(Br)C(=O)C1(Br)Br
inactive: dose: 75.0 mg/kg/injection, schedule: Q01DX001 (sc), vehicle: olive oil, sesame oil, peanut oil 117 % of control

NN1CCCC1
inactive: [7] 98 % of control | dose: 100.0 mg/kg/injection, schedule: Q01DX009 (ip), vehicle: saline 96 % of control | dose: 100.0 mg/kg/injection, schedule: Q04DX003 (ip), vehicle: saline 99 % of control | dose: 200.0 mg/kg/injection, schedule: Q04DX003 (ip), vehicle: saline 96 % of control

O=C(c1ccccc1)c1[nH]c2ccccc2c1-c1ccccc1
inactive: [8] 103 % of control | [9] 107 % of control | [10] 100 % of control

CC(C)(C#N)C(C)(C)c1cnc2ccccc2c1
inactive: [11] 96 % of control | [12] 101 % of control

CN(/N=C/c1ccccn1)C(N)=S
inactive: dose: 75.0 mg/kg/injection, schedule: Q01DX001 (ip), vehicle: carboxymethylcellulose (CMC) 96 % of control | dose: 150.0 mg/kg/injection, schedule: Q01DX001 (ip), vehicle: carboxymethylcellulose (CMC) 96 % of control | dose: 300.0 mg/kg/injection, schedule: Q01DX001 (ip), vehicle: carboxymethylcellulose (CMC) 97 % of control

C=C(COC(C)(C)C)CN(C)C
inactive: dose: 100.0 mg/kg/injection, schedule: Q01DX001 (ip), vehicle: saline 94 % of control | dose: 200.0 mg/kg/injection, schedule: Q01DX001 (ip), vehicle: saline 93 % of control

OC1C=NC(N2CCN(c3ccccc3)CC2)=Cc2ccccc21 (stereo unspecified)
inactive: [13] 97 % of control | [14] 95 % of control | [15] 92 % of control

CCS(=O)(=O)CCOC(=O)c1ccc([N+](=O)[O-])cc1
inactive: [3] 100 % of control | [4] 105 % of control | [5] 98 % of control

Nc1ncnc2c1c(I)cn2C1OC(CO)C(O)C1O (stereo unspecified)
inactive: dose: 5.0 mg/kg/injection, schedule: Q01DX001 (ip), vehicle: saline 102 % of control | dose: 10.0 mg/kg/injection, schedule: Q01DX001 (ip), vehicle: saline 101 % of control | dose: 20.0 mg/kg/injection, schedule: Q01DX001 (ip), vehicle: saline 103 % of control | dose: 40.0 mg/kg/injection, schedule: Q01DX001 (ip), vehicle: saline 105 % of control

Oc1ccccc1OCc1ccccc1
inactive: [16] 92 % of control | [17] 101 % of control | [11] 94 % of control | [18] 97 % of control | [12] 92 % of control | [19] 102 % of control | dose: 400.0 mg/kg/injection, schedule: Q04DX003 (ip), vehicle: Klucel (hydroxypropylcellulose) (HPC) 100 % of control

Cc1ccc([I+]c2ccc(C)cc2C)c(C)c1
inactive: dose: 0.25 mg/kg/injection, schedule: Q01DX015 (ip), vehicle: saline 96 % of control | dose: 0.5 mg/kg/injection, schedule: Q01DX015 (ip), vehicle: saline 96 % of control | dose: 1.0 mg/kg/injection, schedule: Q01DX015 (ip), vehicle: saline 97 % of control | dose: 1.56 mg/kg/injection, schedule: Q01DX009 (ip), vehicle: saline with Tween-80 112 % of control | dose: 1.56 mg/kg/injection, schedule: Q04DX003 (ip), vehicle: saline 95 % of control | dose: 2.0 mg/kg/injection, schedule: Q01DX015 (ip), vehicle: saline 97 % of control | dose: 3.12 mg/kg/injection, schedule: Q01DX009 (ip), vehicle: saline with Tween-80 119 % of control | dose: 3.12 mg/kg/injection, schedule: Q04DX003 (ip), vehicle: saline 91 % of control | dose: 6.25 mg/kg/injection, schedule: Q01DX009 (ip), vehicle: saline with Tween-80 110 % of control | dose: 6.25 mg/kg/injection, schedule: Q04DX003 (ip), vehicle: saline 95 % of control | dose: 12.5 mg/kg/injection, schedule: Q01DX001 (ip), vehicle: saline 94 % of control | dose: 25.0 mg/kg/injection, schedule: Q01DX001 (ip), vehicle: saline 100 % of control

CC(=O)N(NC(=O)c1ccccn1)C(C)=O
inactive: dose: 100.0 mg/kg/injection, schedule: Q01DX001 (ip), vehicle: water 97 % of control | dose: 200.0 mg/kg/injection, schedule: Q01DX001 (ip), vehicle: water 106 % of control

COc1ccccc1C(=O)CC(O)(C(F)(F)F)C(F)(F)F
inactive: [6] 105 % of control | [20] 103 % of control | [21] 103 % of control

Cc1ccc(NC(=O)Oc2ccccc2F)cc1NC(=O)Oc1ccccc1F
inactive: dose: 100.0 mg/kg/injection, schedule: Q01DX009 (ip), vehicle: other 102 % of control | dose: 200.0 mg/kg/injection, schedule: Q01DX009 (ip), vehicle: other 90 % of control | dose: 400.0 mg/kg/injection, schedule: Q01DX009 (ip), vehicle: other 94 % of control

CCc1ccc(NC(=O)c2ccc(Cl)cc2Cl)cc1
inactive: [1] 97 % of control | [2] 87 % of control | [22] 91 % of control

OCn1nnc2ccccc21
inactive: [8] 103 % of control | [9] 90 % of control | [10] 106 % of control

NC(=S)N/N=C/c1c(Cl)n(C(=O)c2ccc(Cl)cc2)c2ccccc12
inactive: dose: 50.0 mg/kg/injection, schedule: Q04DX002 (ip), vehicle: Klucel (hydroxypropylcellulose) (HPC) 91 % of control | [1] 87 % of control | [2] 91 % of control

CC(=O)NC(CSC(c1ccccc1)(c1ccccc1)c1ccccc1)C(=O)O (stereo unspecified)
inactive: dose: 25.0 mg/kg/injection, schedule: Q01DX009 (ip), vehicle: saline 102 % of control | [7] 96 % of control

C=CCc1cc(CNCCCOCC)c(O)c(OC)c1
inactive: dose: 12.5 mg/kg/injection, schedule: Q04DX003 (ip), vehicle: Klucel (hydroxypropylcellulose) (HPC) 97 % of control | dose: 25.0 mg/kg/injection, schedule: Q04DX003 (ip), vehicle: Klucel (hydroxypropylcellulose) (HPC) 95 % of control | [16] 92 % of control

COc1cc(CC2COCC2Cc2ccc3c(c2)OCO3)cc(OC)c1OC (stereo unspecified)
inactive: dose: 25.0 mg/kg/injection, schedule: Q01DX009 (ip), vehicle: acetone 110 % of control | dose: 50.0 mg/kg/injection, schedule: Q01DX009 (ip), vehicle: acetone 101 % of control | dose: 100.0 mg/kg/injection, schedule: Q01DX009 (ip), vehicle: acetone 103 % of control

CCOC(=O)COc1cc([N+](=O)[O-])c(Cl)cc1Cl
inactive: [1] 98 % of control | [2] 98 % of control | [22] 98 % of control

OC12CC(C(F)(F)F)(C(F)(F)F)OC1(O)CC(C(F)(F)F)(C(F)(F)F)O2 (stereo unspecified)
inactive: [13] 94 % of control | [14] 89 % of control

O=C(O)c1ccc(Br)c([N+](=O)[O-])c1
inactive: [17] 95 % of control | [18] 94 % of control | [19] 92 % of control

O=C(O)C1=CC2C3C=CC(C(=O)O)(C3)C2C1 (stereo unspecified)
inactive: [6] 96 % of control | [13] 101 % of control | [20] 96 % of control | [14] 102 % of control | [21] 94 % of control | [15] 98 % of control

O=C(Nc1ccc(Cl)cc1[N+](=O)[O-])Oc1ccccc1C(=O)Nc1ccccc1
inactive: [6] 92 % of control | [8] 93 % of control and 95 % of control | [13] 97 % of control | [20] 91 % of control | [9] 98 % of control and 88 % of control | [14] 95 % of control | [21] 89 % of control and 92 % of control | [10] 97 % of control and 91 % of control | [15] 93 % of control
